Measurements published in patent publication EP1247803A2, “Indolinone compounds suitable for modulation of protein kinases” (Sugen, Inc., priority 1996, dated 1998).

Key:
PDGF-R = PDGF-R (Homo sapiens, UniProt P09619); assay: PDGF-R ELISA; assay type: cell-based
Text: A PDGF-R ELISA is described in International Patent Publication No. WO 96/40116, published December 19, 1996 by Tang et al.

EGFR = molecular target: T1, EGFR (Homo sapiens, UniProt P00533); assay: EGFR ELISA assay (in vitro kinase activity, EGFR captured from A431 cell lysate); assay type: biochemical; set-up: concentration or dose not given beside the values
T1 construct: Add 7 ug A431 cell lysate per well (EGFR source); endogenous in cells; host or cells: A431
In short: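 EGFR from A431 lysate was captured on anti-EGFR antibody-coated plates and preincubated with compounds for 30 min. Autophosphorylation ran 5 min with 3 uM ATP and 5 mM MnCl2 (final), stopped with 20 mM EDTA. Phosphotyrosine was detected by anti-pTyr ELISA with ABTS/H2O2, read at 410 nm.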

MET = MET biochemical kinase assay; set-up: species or system human; concentration or dose not given beside the values
In short: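 Lysate-derived MET, or chimeric receptors, is immobilised on plates through an antibody to the human MET cytoplasmic region. Compounds are added along with kinase buffer supplying ATP and divalent metal ions, and receptor autophosphorylation is quantified by anti-phosphotyrosine ELISA.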

T1 sequence (P00533 25-1210): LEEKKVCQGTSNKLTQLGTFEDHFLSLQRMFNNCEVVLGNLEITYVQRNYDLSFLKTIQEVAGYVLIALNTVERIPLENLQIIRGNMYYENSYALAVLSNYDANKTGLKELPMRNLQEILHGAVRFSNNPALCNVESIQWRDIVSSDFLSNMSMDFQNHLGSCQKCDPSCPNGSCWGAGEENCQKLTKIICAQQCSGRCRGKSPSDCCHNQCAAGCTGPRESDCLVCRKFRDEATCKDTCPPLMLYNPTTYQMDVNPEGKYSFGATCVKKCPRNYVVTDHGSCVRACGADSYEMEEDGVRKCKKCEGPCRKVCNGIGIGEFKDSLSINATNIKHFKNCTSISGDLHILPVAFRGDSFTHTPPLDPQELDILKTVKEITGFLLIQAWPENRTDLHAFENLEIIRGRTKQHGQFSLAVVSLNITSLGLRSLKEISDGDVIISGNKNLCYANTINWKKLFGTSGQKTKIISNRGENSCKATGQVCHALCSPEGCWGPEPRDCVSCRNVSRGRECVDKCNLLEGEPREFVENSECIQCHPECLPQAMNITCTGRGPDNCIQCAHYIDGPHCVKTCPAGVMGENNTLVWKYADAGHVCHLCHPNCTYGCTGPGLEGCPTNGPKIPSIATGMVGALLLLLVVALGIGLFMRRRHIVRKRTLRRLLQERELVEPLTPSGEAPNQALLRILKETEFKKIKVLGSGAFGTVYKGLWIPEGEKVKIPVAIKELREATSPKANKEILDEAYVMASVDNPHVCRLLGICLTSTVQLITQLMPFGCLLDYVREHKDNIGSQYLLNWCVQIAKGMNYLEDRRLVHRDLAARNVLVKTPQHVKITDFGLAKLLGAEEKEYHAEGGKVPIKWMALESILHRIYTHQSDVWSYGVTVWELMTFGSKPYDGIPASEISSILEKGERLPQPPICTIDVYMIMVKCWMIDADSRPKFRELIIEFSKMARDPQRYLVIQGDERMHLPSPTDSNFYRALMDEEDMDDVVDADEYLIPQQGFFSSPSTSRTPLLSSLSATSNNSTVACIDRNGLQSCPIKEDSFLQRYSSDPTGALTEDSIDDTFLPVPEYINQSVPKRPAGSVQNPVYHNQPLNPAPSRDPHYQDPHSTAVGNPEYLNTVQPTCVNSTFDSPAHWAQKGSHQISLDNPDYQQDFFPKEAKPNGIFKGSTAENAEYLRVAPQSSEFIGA
Sequence of PDGF-R (P09619 33-1106, species assumed): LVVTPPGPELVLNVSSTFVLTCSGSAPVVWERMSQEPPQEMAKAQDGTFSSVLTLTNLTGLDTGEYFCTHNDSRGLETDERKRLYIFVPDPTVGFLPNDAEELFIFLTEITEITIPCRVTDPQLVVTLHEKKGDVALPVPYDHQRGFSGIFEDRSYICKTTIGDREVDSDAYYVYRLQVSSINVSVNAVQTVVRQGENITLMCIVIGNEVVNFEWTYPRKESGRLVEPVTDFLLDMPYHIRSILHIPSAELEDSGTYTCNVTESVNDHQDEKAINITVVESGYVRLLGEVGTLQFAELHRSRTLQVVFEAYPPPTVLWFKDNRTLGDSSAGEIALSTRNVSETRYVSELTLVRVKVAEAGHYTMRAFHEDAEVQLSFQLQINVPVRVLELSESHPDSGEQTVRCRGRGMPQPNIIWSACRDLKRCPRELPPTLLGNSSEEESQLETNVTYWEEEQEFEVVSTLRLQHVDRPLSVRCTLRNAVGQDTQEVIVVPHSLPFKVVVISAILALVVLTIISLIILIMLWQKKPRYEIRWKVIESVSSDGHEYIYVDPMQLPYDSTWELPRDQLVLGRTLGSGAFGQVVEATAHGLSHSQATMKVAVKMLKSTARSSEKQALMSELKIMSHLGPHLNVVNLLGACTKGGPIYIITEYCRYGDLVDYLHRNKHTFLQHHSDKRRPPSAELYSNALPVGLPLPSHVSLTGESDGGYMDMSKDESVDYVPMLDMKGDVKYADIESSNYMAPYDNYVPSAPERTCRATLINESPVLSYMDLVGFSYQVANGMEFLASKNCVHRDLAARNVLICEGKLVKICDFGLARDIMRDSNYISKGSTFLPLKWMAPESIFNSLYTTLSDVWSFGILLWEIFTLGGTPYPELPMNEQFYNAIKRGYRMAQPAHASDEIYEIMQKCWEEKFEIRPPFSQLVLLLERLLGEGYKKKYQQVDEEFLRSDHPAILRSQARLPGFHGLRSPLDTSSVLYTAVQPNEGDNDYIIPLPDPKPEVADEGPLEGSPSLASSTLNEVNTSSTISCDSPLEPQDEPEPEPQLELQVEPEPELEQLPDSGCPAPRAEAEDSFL

Structure (SMILES)	PDGF Kinase %Inhibition (PDGF-R) [%]	Biochem EGFR %Inhibition (EGFR) [%]	Met Kinase % Inhibition (MET) [%]
COc1cc(N(C)C)ccc1C=C1C(=O)Nc2c(Br)cc(Br)cc21 [10728/A05]	4.5	17.7	31.8
O=C1Nc2ccc(CCCl)cc2C1=Cc1cc2c(cc1Cl)OCO2 [10727/G06]	-12.5	-12.1	31.1
CNS(=O)(=O)c1ccc2c(c1)C(=Cc1cc(O)ccc1O)C(=O)N2 [10727/D10]	9.4	86.2	79.9
O=C1Nc2ccc(I)cc2C1=Cc1cc(C(F)(F)F)ccc1F [10728/B08]	-6.6	34.7	77.0
O=C1Nc2ccc(CCCl)cc2C1=Cc1ccccc1Sc1ccc(Cl)cc1 [10727/G05]	-2.3	11.2	7.1
CNS(=O)(=O)c1ccc2c(c1)C(=Cc1cc(Cl)cc(Br)c1O)C(=O)N2 [10727/D04]	6.4	39.6	76.0
CCN(CC)c1ccc(C=C2C(=O)Nc3ccc(S(=O)(=O)N4CCOCC4)cc32)cc1 [10727/F02]	11.5	-0.5	52.0
COc1ccc(OC)c(C=C2C(=O)Nc3c(Br)cc(Br)cc32)c1 [10728/A02]	-7.9	9.2	25.6
O=C(O)COc1ccccc1C=C1C(=O)Nc2ccc(I)cc21 [10728/B10]	2.7	16.8	79.3
O=C1Nc2c(Br)cc(Br)cc2C1=Cc1ccc(Cl)c([N+](=O)[O-])c1 [10718/A08]	–	5.8	36.8
COc1cccc(C=C2C(=O)Nc3ccc(CCCl)cc32)c1OC [10727/G11]	15.9	-3.5	-0.8
CNS(=O)(=O)c1ccc2c(c1)C(=Cc1ccc(N(C)C)cc1OC)C(=O)N2 [10728/D05]	7.2	12.7	29.5
COC(=O)c1[nH]c(C)c(C=C2C(=O)Nc3c(Br)cc(Br)cc32)c1C(=O)OC [10718/A07]	–	-10.6	58.6
CNS(=O)(=O)c1ccc2c(c1)C(=Cc1cc(OC)cc(OC)c1)C(=O)N2 [10728/D04]	26.7	-1.1	23.1
COc1cccc(OC)c1C=C1C(=O)Nc2ccc(Br)c(C)c21 [10728/C03]	24.9	9.7	16.9
Cc1c(Br)ccc2c1C(=Cc1c(F)cccc1C(F)(F)F)C(=O)N2 [10728/C09]	8.1	-6.8	31.6
CNS(=O)(=O)c1ccc2c(c1)C(=Cc1ccc(C#N)cc1)C(=O)N2 [10727/D09]	7.2	15.1	17.9
CCc1cc(CC)c(C=C2C(=O)Nc3ccc(S(=O)(=O)Nc4ccc(C(F)(F)F)cc4)cc32)[nH]1 [10727/E03]	5.7	35.5	28.8
COc1ccc(OC)c(C=C2C(=O)Nc3ccc(I)cc32)c1 [10728/B02]	-0.4	-10.5	61.2
O=C1Nc2c(Br)cc(Br)cc2C1=Cc1cccc(C(F)(F)F)c1F [10728/A07]	31.1	59.6	28.5
COc1cccc(C=C2C(=O)Nc3ccc(S(=O)(=O)N4CCOCC4)cc32)c1OC [10727/F11]	18.1	-2.6	-3.0
N#Cc1cccc(C=C2C(=O)Nc3ccc(S(=O)(=O)Nc4ccc(C(F)(F)F)cc4)cc32)c1 [10727/E08]	23.9	25.6	27.0
CCOC(=O)c1cc(C=C2C(=O)Nc3c(Br)cc(Br)cc32)oc1C [10718/A06]	–	19.4	61.3
O=C1Nc2c(Br)cc(Br)cc2C1=Cc1c(F)cccc1C(F)(F)F [10728/A09]	10.3	19.3	53.1
CNS(=O)(=O)c1ccc2c(c1)C(=Cc1coc3ccccc3c1=O)C(=O)N2 [10727/D07]	-14.7	10.5	50.6

Structure (SMILES)	PDGF Kinase %Inhibition (PDGF-R) [%]	Biochem EGFR %Inhibition (EGFR) [%]	Met Kinase % Inhibition (MET) [%]
COc1cc(Br)c(O)c(C=C2C(=O)Nc3c(Br)cc(Br)cc32)c1 [10718/A03]	–	-6.1	92.7
O=C1Nc2ccc(CCCl)cc2C1=Cc1cc(Cl)cc(Br)c1O [10727/G04]	-27.0	80.6	94.0
CNS(=O)(=O)c1ccc2c(c1)C(=Cc1c(OC)cccc1OC)C(=O)N2 [10728/D03]	32.0	10.8	13.5
O=C1Nc2c(Br)cc(Br)cc2C1=Cc1ccc2c(c1)Cc1ccccc1-2 [10728/A06]	-3.1	17.2	19.7
N#Cc1ccc(C=C2C(=O)Nc3ccc(S(=O)(=O)N4CCOCC4)cc32)cc1 [10727/F09]	21.7	-2.0	9.3
CNS(=O)(=O)c1ccc2c(c1)C(=Cc1cc3c(cc1Cl)OCO3)C(=O)N2 [10727/D06]	10.8	8.6	24.4
COc1cc(C=C2C(=O)Nc3c(Br)cc(Br)cc32)cc2c1OCO2 [10728/A11]	-9.3	-0.6	58.8
N#Cc1ccc(C=C2C(=O)Nc3ccc(S(=O)(=O)Nc4ccc(C(F)(F)F)cc4)cc32)cc1 [10727/E09]	15.9	15.1	28.4
O=C(O)COc1ccccc1C=C1C(=O)Nc2c(Br)cc(Br)cc21 [10728/A10]	1.8	-3.4	77.2
O=C1Nc2ccc(I)cc2C1=Cc1c(F)cccc1C(F)(F)F [10728/B09]	-0.4	31.7	81.7
CNS(=O)(=O)c1ccc2c(c1)C(=Cc1cccc(OC)c1OC)C(=O)N2 [10727/D11]	17.4	-23.7	17.3
COc1cc(N(C)C)ccc1C=C1C(=O)Nc2ccc(Br)c(C)c21 [10728/C05]	23.2	16.1	33.7
O=C1Nc2ccc(S(=O)(=O)N3CCOCC3)cc2C1=Cc1cc(Cl)cc(Br)c1O [10727/F04]	-10.3	17.9	92.0
Cc1[nH]c(C=C2C(=O)Nc3ccc(CCCl)cc32)c(Br)c1Br [10717/G11]	–	71.7	73.8
CCc1cc(CC)c(C=C2C(=O)Nc3ccc(S(=O)(=O)N4CCOCC4)cc32)[nH]1 [10727/F03]	-3.7	36.8	22.0
O=C1Nc2ccc(S(=O)(=O)Nc3ccc(C(F)(F)F)cc3)cc2C1=Cc1coc2ccccc2c1=O [10727/E07]	10.1	7.1	45.2
CCc1cc(CC)c(C=C2C(=O)Nc3ccc(CCCl)cc32)[nH]1 [10727/G03]	-10.3	19.4	40.5
O=C1Nc2ccc(S(=O)(=O)N3CCOCC3)cc2C1=Cc1coc2ccccc2c1=O [10727/F07]	2.1	-8.9	17.9
COc1cc(C=C2C(=O)Nc3ccc(Br)c(C)c32)cc(OC)c1 [10728/C04]	27.2	16.1	33.6
O=C1Nc2ccc(S(=O)(=O)N3CCOCC3)cc2C1=Cc1cc(O)ccc1O [10727/F10]	9.4	74.1	93.4
O=C1Nc2ccc(I)cc2C1=Cc1cccc(C(F)(F)F)c1F [10728/B07]	20.9	11.1	82.2
O=C1Nc2c(Br)cc(Br)cc2C1=Cc1ccc2ccccc2c1O [10718/A04]	–	27.3	81.7
CCOC(=O)CCc1c(C(=O)OCC)[nH]c(C=C2C(=O)Nc3c(Br)cc(Br)cc32)c1CC(=O)OCC [10718/A05]	–	-6.9	36.1
CCOC(=O)c1c(C)[nH]c(C=C2C(=O)Nc3c(Br)cc(Br)cc32)c1C [10718/A02]	–	11.3	54.6
